Converted amounts (≈) assume the structure as drawn. Each block holds one molecule with its values, some of them ahead of it.
Columns and labels:
Assay type in all cases: functional
Acinetobacter baumannii = experiment: Antibacterial activity against Acinetobacter baumannii ATCC 19606 assessed as reduction in microbial growth by CLSI protocol based broth micro-dilution method
Staphylococcus aureus [1] = experiment: Antibacterial activity against methicillin-resistant Staphylococcus aureus MB5393 assessed as reduction in bacterial growth incubated for 18 to 20 hrs by broth micro-dilution method; conditions: time 18-20 hrs
Staphylococcus aureus [2] = experiment: Antibacterial activity against Staphylococcus aureus ATCC 25923 assessed as reduction in bacterial growth by CLSI protocol based MHB micro-silution method
Streptococcus suis = experiment: Antibacterial activity against Streptococcus suis SC19 assessed as reduction in bacterial growth by CLSI protocol based MHB micro-silution method
[3] = test system: Erysipelothrix rhusiopathiae; experiment: Antibacterial activity against Erysipelothrix rhusiopathiae WH13013 assessed as reduction in bacterial growth by CLSI protocol based MHB micro-silution method
Staphylococcus aureus [4] = experiment: Antibacterial activity Staphylococcus aureus ATCC 25923 assessed as reduction in bacterial growth
Bacillus subtilis [5] = experiment: Antibacterial activity Bacillus subtilis ATCC 49343 assessed as reduction in bacterial growth
Escherichia coli [6] = experiment: Antibacterial activity Escherichia coli ATCC 8739 assessed as reduction in bacterial growth
Bacillus subtilis [7] = experiment: Antibacterial activity against Bacillus subtilis ATCC 6633 assessed as reduction in microbial growth
Staphylococcus aureus [8] = experiment: Antibacterial activity against Staphylococcus aureus ATCC 25923 assessed as reduction in microbial growth
Staphylococcus aureus [9] = experiment: Antibacterial activity against Staphylococcus aureus ATCC 33592 assessed as reduction in microbial growth
Staphylococcus aureus [10] = experiment: Antibacterial activity against methicillin-Staphylococcus aureus ATCC 29213 assessed as reduction in bacterial growth by broth micro-dilution method
Micrococcus luteus = experiment: Antibacterial activity against Micrococcus luteus ML01 assessed as reduction in bacterial growth incubated for 24 to 48 hrs by serial dilution method; conditions: time 24-48 hrs
Kocuria rhizophila = experiment: Antimicrobial activity against Kocuria rhizophila ATCC 9341 assessed as reduction in microbial growth
Staphylococcus aureus [11] = experiment: Antimicrobial activity against Staphylococcus aureus ATCC 25913 assessed as reduction in bacterial growth by CLSI protocol based Mueller-Hinton broth micro-dilution method
Enterococcus faecalis = experiment: Antibacterial activity against Enterococcus faecalis ATCC 29212 assessed as reduction in microbial growth by CLSI protocol based Mueller-Hinton broth micro-dilution method
Bacillus cereus = experiment: Antibacterial activity against Bacillus cereus ATCC 11778 assessed as reduction in bacterial growth
Staphylococcus aureus [12] = experiment: Antibacterial activity against Staphylococcus aureus assessed as reduction in microbial growth incubated for 24 hrs by CLSI protocol based analysis
Escherichia coli [13] = experiment: Antibacterial activity against Escherichia coli ATCC 25922 assessed as reduction in microbial growth incubated for 24 hrs by CLSI protocol based analysis
Staphylococcus aureus [14] = experiment: Antibacterial activity against Staphylococcus aureus
Escherichia coli [15] = experiment: Antibacterial activity against Escherichia coli DH5a
Bacillus subtilis [16] = experiment: Antibacterial activity against Bacillus subtilis

MIC (Acinetobacter baumannii): 128 µg/mL
Structure (SMILES): COc1cc(-c2ccccn2)nc(/C=N/O)c1S(C)(=O)=O

MIC (Staphylococcus aureus [4]): 86.9 µg/mL (≈ 319 µM) | MIC (Bacillus subtilis [5]): 48.4 µg/mL (≈ 178 µM) | MIC (Escherichia coli [6]): 133 µg/mL (≈ 488 µM)
Structure (SMILES): C=C(C)[C@@H]1CC[C@H](C)[C@H]2CC/C(C)=C/CC/C(C)=C/[C@H]21

MIC (Staphylococcus aureus [2]): 1.56 µg/mL (≈ 4.56 µM) | MIC (Streptococcus suis): 1.56 µg/mL (≈ 4.56 µM)
Structure (SMILES): CCC[C@@H](O)Cc1cc(O)cc2c1C(=O)c1c(O)ccc(O)c1C2=O

MIC (Staphylococcus aureus [10]): 1 µg/mL (≈ 2.32 µM) | MIC (Micrococcus luteus): 0.5 µg/mL (≈ 1.16 µM)
Structure (SMILES): O=C1NC(=O)C(c2c[nH]c3cc(Cl)c(Cl)cc23)=C1c1c[nH]c2ccc(Cl)cc12

MIC (Bacillus subtilis [7]): 1.6 µg/mL | MIC (Staphylococcus aureus [8]): 25 µg/mL | MIC (Staphylococcus aureus [9]): > 100 µg/mL
Structure (SMILES): CC[C@H](C)[C@@H]1NC(=O)[C@@H](Cc2c[nH]c3cc(Br)ccc23)NC(=O)[C@@H](Cc2c[nH]c3ccc(Br)cc23)NC(=O)[C@@H](CO)NC(=O)[C@@H](CCC(=O)O)NC(=O)[C@@H](C(C)C)NC1=O

MIC (Staphylococcus aureus [10]): 3 µg/mL (≈ 6.41 µM) | MIC (Micrococcus luteus): 16 µg/mL (≈ 34.2 µM)
Structure (SMILES): COC(=O)c1[nH]c(C(=O)O)c(-c2c[nH]c3c(Cl)cccc23)c1-c1c[nH]c2c(Cl)cccc12

MIC (Staphylococcus aureus [14]): 18 µg/mL (≈ 46.1 µM) | MIC (Escherichia coli [15]): > 100 µg/mL | MIC (Bacillus subtilis [16]): 10 µg/mL (≈ 25.6 µM)
Structure (SMILES): COc1ccc(OC)c([C@@H](O)[C@@H](C)C(=O)c2ccc(OC)c(C(=O)O)c2O)c1

MIC (Bacillus cereus): 25 µg/mL (≈ 66.4 µM)
Structure (SMILES): CC1C[C@@](C)(C(=O)[C@]23C=C[C@@]45C[C@H](C)[C@@](C)(O[C@]42CC(=O)O5)[C@H]3O)OC1=O (some centres undefined)

MIC (Staphylococcus aureus [11]): 40 µg/mL (≈ 89.8 µM) | MIC (Enterococcus faecalis): 40 µg/mL
Structure (SMILES): C[C@@H](O)[C@@H]1CC[C@H](c2ccc(O)c3c2C(=O)[C@]24O[C@]2([C@@H](C)O[C@@H]2CC(=O)O[C@@H]24)[C@H]3O)N1C

More lines, now with the values behind:

Structure (SMILES): CC[C@@H](/C=C/[C@@H]1C/C=C(\C)[C@@H](O)[C@@H](C)[C@H](O[C@H]2O[C@H](CO)[C@H](O)[C@@H](O)[C@H]2O)C[C@@H](O)[C@@H](C)[C@H](O)C[C@@H]2C[C@H](O)[C@@H](O)[C@](O)(C[C@@H](O[C@H]3O[C@@H](C)[C@H](O)[C@@H](O[C@H]4C[C@H](N)[C@@H](O)[C@@H](C)O4)[C@@H]3O[C@H]3O[C@@H](C)[C@H](O)[C@@H](O)[C@@H]3O)[C@@H](C)/C=C/[C@@H](O)C[C@@H](O)[C@@H](C)/C=C/C(=O)O1)O2)[C@@H](O)[C@@H](C)[C@H](CC)O[C@H]1C[C@](C)(N)[C@H](O)[C@H](C)O1
MIC (Staphylococcus aureus [1]): 2 µg/mL (≈ 1.26 µM)

Structure (SMILES): C[C@@H](O)Cc1cc(O)cc2c1C(=O)c1c(O)ccc(O)c1C2=O
MIC (Staphylococcus aureus [2]): 0.78 µg/mL (≈ 2.48 µM) | MIC (Streptococcus suis): 12.5 µg/mL (≈ 39.8 µM) | MIC [3]: 6.25 µg/mL (≈ 19.9 µM)

Structure (SMILES): CC[C@H](C)[C@@H]1NC(=O)[C@@H](Cc2c[nH]c3cc(Br)ccc23)NC(=O)[C@@H](Cc2c[nH]c3ccccc23)NC(=O)[C@@H](CO)NC(=O)[C@@H](CCC(=O)O)NC(=O)[C@@H](C(C)C)NC1=O
MIC (Bacillus subtilis [7]): 1.6 µg/mL | MIC (Staphylococcus aureus [8]): 6.3 µg/mL | MIC (Staphylococcus aureus [9]): 6.3 µg/mL

Structure (SMILES): CC(C)C[C@H](NC(=O)/C=N/O)[C@@H](O)[C@@H](C)C(=O)O
MIC (Kocuria rhizophila): 50 µg/mL

Structure (SMILES): C[C@@H](O)[C@@H]1CC[C@H](c2ccc(O)c3c2C(=O)[C@@]24O[C@@]2([C@@H](C)O[C@@H]2CC(=O)O[C@@H]24)[C@H]3O)N1C
MIC (Staphylococcus aureus [11]): 40 µg/mL (≈ 89.8 µM) | MIC (Enterococcus faecalis): 40 µg/mL

Structure (SMILES): C=C(C)[C@@H]1CC[C@H](C)[C@H]2CC/C(C)=C/C[C@H](O)/C(C(=O)O)=C/[C@H]21
MIC (Staphylococcus aureus [4]): 49.7 µg/mL (≈ 156 µM) | MIC (Bacillus subtilis [5]): 1.1 µg/mL (≈ 3.45 µM) | MIC (Escherichia coli [6]): 125 µg/mL (≈ 394 µM)

Structure (SMILES): C[C@@H]1C[C@@]2(C)O[C@]1(O)[C@@H]1C(=O)O[C@@]34C[C@@H](C)[C@@]5(C)O[C@@]13C(=C[C@@H]4C5O)C2=O (some centres undefined)
MIC (Bacillus cereus): 50 µg/mL (≈ 133 µM)

Structure (SMILES): CC[C@H](C)C[C@@]1(O)C(=O)C[C@H](O)[C@](C)(O)/C=C(\C)[C@@H](O)/C(C)=C/C(C)=C/C[C@@H](CO[C@@H]2O[C@H](CO)[C@@H](O)[C@H](O)[C@H]2O)OC(=O)C[C@@H](O)CNC1=O
MIC (Staphylococcus aureus [12]): 21 µg/mL | MIC (Escherichia coli [13]): 27.9 µg/mL

Structure (SMILES): CC[C@@H](/C=C/[C@@H]1C/C=C(\C)[C@@H](O)[C@@H](C)[C@H](O)C[C@@H](O)[C@@H](C)[C@H](O)C[C@@H]2C[C@H](O)[C@@H](O)[C@](O)(C[C@@H](O[C@H]3O[C@@H](C)[C@H](O)[C@@H](O[C@H]4C[C@H](N)[C@@H](O)[C@@H](C)O4)[C@@H]3O[C@H]3O[C@@H](C)[C@H](O)[C@@H](O)[C@@H]3O)[C@@H](C)/C=C/[C@@H](O)C[C@@H](O)[C@@H](C)/C=C/C(=O)O1)O2)[C@@H](O)[C@@H](C)[C@H](CC)O[C@H]1C[C@](C)(N)[C@H](O)[C@H](C)O1
MIC (Staphylococcus aureus [1]): 1 µg/mL (≈ 0.702 µM)

Structure (SMILES): CC[C@H](C)C[C@]1(O)C(=O)NC[C@H](O)CC(=O)O[C@H](CO[C@@H]2O[C@H](CO)[C@@H](O)[C@H](O)[C@H]2O)CC/C=C(\C)[C@H]2C(C)=C[C@@]3(C)O[C@H]4C[C@]1(O)O[C@@]4(C)[C@@H]23
MIC (Staphylococcus aureus [12]): 11.6 µg/mL | MIC (Escherichia coli [13]): 15.7 µg/mL

Structure (SMILES): CC(=O)OC1[C@H]2C=C3C(=O)[C@@]4(C)C[C@@H](C)[C@](O)(O4)[C@@H]4C(=O)O[C@]25C[C@@H](C)[C@@]1(C)O[C@@]345 (some centres undefined)
MIC (Bacillus cereus): > 50 µg/mL

Reference: ChEMBL document CHEMBL6182843, “Actinomycetes: Treasure trove for discovering novel antibiotic candidates” (2025)
